Laboratory results published in patent US5616609A, “Carcinostatic compound and production thereof” (priority 1991, dated 1997).
Like-named read-outs stand apart in the source and are kept apart here.

Key:
HLE liver cancer cells = test: Inhibition of proliferation of human liver cancer cells HLE (Tests 2 and 4); format: cell-based; settings: RMP-1640 + 10% calf serum, 37° C.
Method: (§1) Cells of gastric cancer, pulmonary cancer, liver cancer and leukemia, which had been separated from human patients, were separately placed in portions of RMP-1640 medium containing 10% calf serum and then incubated at 37° C. for 4 days in a 5% CO2 -incubator to obtain a cell population of 10^4 /ml. To the cells of each cancer kind so cultured, stelleramacrin was added at varied concentrations, and the concentration (IC50) of each test compound at which proliferation of the human cancer cells was inhibited by 50% was deterimined.
as §1, with “separately placed on portions of” for “separately placed in portions of”, “so cultured, gnidimacrin or pimelea factor was added” for “so cultured, stelleramacrin was added”, “(IC50) of the test compound” for “(IC50) of each test compound”, “50% was determined.” for “50% was deterimined.”

[1] = system: Lewis pulmonary cancer cells; test: Lewis pulmonary cancer in mice, intravenous administration; format: in vivo, mouse; settings: 0.06 mg/Kg
Meth A fibrosarcoma = Meth A fibrosarcoma solid cancer in male BALB/c mice, injection into the cancer (Test 5); format: in vivo, mouse (BALB/c); settings: 0.001 mg/Kg injected into solid cancer once a day for 5 days, 21st day
Method: Using laboratory animals, effects of gnidimacrin on solid cancer were studied. First, intradermally inoculated to male BALB/c mice (each group consisting of 6 mice, each having a weight of 17-21 g) was 0.01 ml of RPMI 1640 solution which contained 10% fetal serum and 1×10^5 cells/ml of Meth A fibrosarcoma. Seven days after the inoculation, solid cancer was formed. Into the solid cancer, gnidimacrin which had been dissolved in physiological saline containing 0.5% CMC, was administered at 0.001 mg/Kg by injection. That administration was conducted once a day for 5 days. On the 21st day from the inoculation of Meth A fibrosarcoma, the cancer was cut out and its weight was compared with that of a control group not administered with gnidimacrin. […] Namely, gnidimacrin inhibited the proliferation of the solid cancer by 81%.

[2] = system: Lewis pulmonary cancer cells; test: Lewis pulmonary cancer, hypodermic transplant in BDF1 mice (Test 3); format: in vivo, mouse (BDF1); settings: once a day for 5 days, vs control
Method: (§2) Hypodermically transplanted to induce solid cancer were Lewis pulmonary cancer cells to BDF1 mice in an amount of 1×10^6 cells per mouse, Clon 26 large bowel cancer cells to BALB/C mice in an amount of 5×10^5 cells per mouse and a 20% homogenate of B-16 melanoma solid cancer to BDF1 mice in an amount of 0.25 ml per mouse. From the following day of the transplantation, gnidimacrin and pimelea factor P2 were administered separately once a day for 5 days. Each test group was compared in apothanasia rate with a control group. The results on gnidimacrin and pimelea factor P2 are shown in Table 3 and Table 4, respectively.

[3] = system: MKU-28 gastric cancer cells; test: Inhibition of proliferation of human gastric cancer cells MKU-28 (Tests 2 and 4); format: cell-based; settings: gastric cancer MKU-28, RMP-1640 + 10% calf serum, 37° C.
Method: as §1
as §1, with “separately placed on portions of” for “separately placed in portions of”, “so cultured, gnidimacrin or pimelea factor was added” for “so cultured, stelleramacrin was added”, “(IC50) of the test compound” for “(IC50) of each test compound”, “50% was determined.” for “50% was deterimined.”

[4] = system: LU-99 pulmonary cancer cells; test: Inhibition of proliferation of human pulmonary cancer cells LU-99 (Tests 2 and 4); format: cell-based; settings: pulmonary cancer LU-99, RMP-1640 + 10% calf serum, 37° C.
Method: as §1
as §1, with “separately placed on portions of” for “separately placed in portions of”, “so cultured, gnidimacrin or pimelea factor was added” for “so cultured, stelleramacrin was added”, “(IC50) of the test compound” for “(IC50) of each test compound”, “50% was determined.” for “50% was deterimined.”

B-16 melanoma = test: B-16 melanoma, hypodermic transplant in BDF1 mice (Test 3); format: in vivo, mouse (BDF1); settings: once a day for 5 days, vs control
Method: as §2

[5] = system: N-237 pulmonary cancer cells; test: Inhibition of proliferation of human pulmonary cancer cells N-237 (Tests 2 and 4); format: cell-based; settings: pulmonary cancer N-237, RMP-1640 + 10% calf serum, 37° C.
Method: as §1
as §1, with “separately placed on portions of” for “separately placed in portions of”, “so cultured, gnidimacrin or pimelea factor was added” for “so cultured, stelleramacrin was added”, “(IC50) of the test compound” for “(IC50) of each test compound”, “50% was determined.” for “50% was deterimined.”

[6] = system: K-III gastric cancer cells; test: Inhibition of proliferation of human gastric cancer cells K-III (Tests 2 and 4); format: cell-based; settings: RMP-1640 + 10% calf serum, 37° C.
Method: as §1
as §1, with “separately placed on portions of” for “separately placed in portions of”, “so cultured, gnidimacrin or pimelea factor was added” for “so cultured, stelleramacrin was added”, “(IC50) of the test compound” for “(IC50) of each test compound”, “50% was determined.” for “50% was deterimined.”

[7] = system: PC-7 pulmonary cancer cells; test: Inhibition of proliferation of human pulmonary cancer cells PC-7 (Tests 2 and 4); format: cell-based; settings: pulmonary cancer PC-7, RMP-1640 + 10% calf serum, 37° C.
Method: as §1
as §1, with “separately placed on portions of” for “separately placed in portions of”, “so cultured, gnidimacrin or pimelea factor was added” for “so cultured, stelleramacrin was added”, “(IC50) of the test compound” for “(IC50) of each test compound”, “50% was determined.” for “50% was deterimined.”

[8] = system: H-69 pulmonary cancer cells; test: Inhibition of proliferation of human pulmonary cancer cells H-69 (Tests 2 and 4); format: cell-based; settings: pulmonary cancer H-69, RMP-1640 + 10% calf serum, 37° C.
Method: as §1
as §1, with “separately placed on portions of” for “separately placed in portions of”, “so cultured, gnidimacrin or pimelea factor was added” for “so cultured, stelleramacrin was added”, “(IC50) of the test compound” for “(IC50) of each test compound”, “50% was determined.” for “50% was deterimined.”

K-502 leukemia cells = test: Inhibition of proliferation of human leukemia cells K-502 (Tests 2 and 4); format: cell-based; settings: leukemia K-502, RMP-1640 + 10% calf serum, 37° C.
Method: as §1
as §1, with “separately placed on portions of” for “separately placed in portions of”, “so cultured, gnidimacrin or pimelea factor was added” for “so cultured, stelleramacrin was added”, “(IC50) of the test compound” for “(IC50) of each test compound”, “50% was determined.” for “50% was deterimined.”

[9] = system: Colon 26 large bowel cancer; test: Colon 26 large bowel cancer, hypodermic transplant in BALB/C mice (Test 3); format: in vivo, mouse (BALB/C); settings: once a day for 5 days, vs control
Method: as §2

[10] = system: MKV-74 gastric cancer cells; test: Inhibition of proliferation of human gastric cancer cells MKV-74 (Tests 2 and 4); format: cell-based; settings: gastric cancer MKV-74, RMP-1640 + 10% calf serum, 37° C.
Method: as §1
as §1, with “separately placed on portions of” for “separately placed in portions of”, “so cultured, gnidimacrin or pimelea factor was added” for “so cultured, stelleramacrin was added”, “(IC50) of the test compound” for “(IC50) of each test compound”, “50% was determined.” for “50% was deterimined.”

[11] = system: PC-14 pulmonary cancer cells; test: Inhibition of proliferation of human pulmonary cancer cells PC-14 (Tests 2 and 4); format: cell-based; settings: pulmonary cancer PC-14, RMP-1640 + 10% calf serum, 37° C.
Method: as §1
as §1, with “separately placed on portions of” for “separately placed in portions of”, “so cultured, gnidimacrin or pimelea factor was added” for “so cultured, stelleramacrin was added”, “(IC50) of the test compound” for “(IC50) of each test compound”, “50% was determined.” for “50% was deterimined.”

[12] = system: solid cancer such as gastric cancer, pulmonary cancer, liver cancer; test: Inhibiting action against solid cancer (summary statement); settings: liver cancer or the like
[13] = system: MKV-45 gastric cancer cells; test: Inhibition of proliferation of human gastric cancer cells MKV-45 (Tests 2 and 4); format: cell-based; settings: gastric cancer MKV-45, RMP-1640 + 10% calf serum, 37° C.
Method: as §1
as §1, with “separately placed on portions of” for “separately placed in portions of”, “so cultured, gnidimacrin or pimelea factor was added” for “so cultured, stelleramacrin was added”, “(IC50) of the test compound” for “(IC50) of each test compound”, “50% was determined.” for “50% was deterimined.”

[14] = system: mouse leukemia cell P-388; test: P-388 mouse leukemia, intraperitoneal transplant in BDF1 mice, survival (Test 1); format: in vivo; settings: 1 mg/kg, once a day for 5 days
Text: The mouse leukemia cell P-388 was intraperitoneally transplanted to BDF1 mice in an amount of 1×10^6 cells per mouse. From the following day, each test drug was intraperitoneally administered to the mice once a day for 5 days. Each test group was compared in the number of survival days with a control group to determine an apothanasia rate.

Acute toxicity (LD50) = settings: in vivo; species and route not given

Compound	IC50 (HLE liver cancer cells; Homo sapiens, read-out: IC50) [µg/mL]	IC50 ([3]; Homo sapiens, read-out: IC50) [µg/mL]	IC50 ([4]; Homo sapiens, read-out: IC50) [µg/mL]	IC50 ([5]; Homo sapiens, read-out: IC50) [µg/mL]	IC50 ([6]; Homo sapiens, read-out: IC50) [µg/mL]	IC50 ([7]; Homo sapiens, read-out: IC50) [µg/mL]	IC50 ([8]; Homo sapiens, read-out: IC50) [µg/mL]	IC50 (K-502 leukemia cells; Homo sapiens, read-out: IC50) [µg/mL]	IC50 ([10]; Homo sapiens, read-out: IC50) [µg/mL]	IC50 ([11]; Homo sapiens, read-out: IC50) [µg/mL]	inhibiting action against solid cancer [12]	IC50 ([13]; Homo sapiens, read-out: IC50) [µg/mL]	other results
C=C(C)[C@@]12C[C@@H](COC(=O)c3ccccc3)[C@@]34OC5(O[C@@H]1[C@@H]3[C@@H]1O[C@]1(CO)[C@@H](O)[C@@]1(O)[C@H]4[C@H]([C@H](C)[C@@H]1OC(=O)c1ccccc1)[C@H](C)CCCCCC[C@H]5O)O2 (single isomer, unassigned) [Gnidimacrin, gnidimacrin]	2	0.006	1	0.2	0.0006	0.5	0.6	0.0025	> 1	0.85	strong inhibiting action	0.0001	Apothanasia rate [1]: 47.8%; average cancer weight (Meth A fibrosarcoma; control group 2.1 g): 0.4 g; inhibition of the proliferation of the solid cancer (Meth A fibrosarcoma; vs control): 81%; Apothanasia rate ([2]; 0.02 mg/kg): 40.0%; Apothanasia rate (B-16 melanoma; 0.02 mg/kg): 49.2%; Apothanasia rate ([9]; 0.01 mg/kg): 26.8%
C=C(C)C12CC(COC(=O)c3ccccc3)C34OC5(OC1C3C1OC1(CO)C(O)C1(O)C(O)C(C)C(C(C)CCCCCCC5O)C14)O2 (single isomer, unassigned) [Stelleramacrin A]	> 10	0.2	> 10	5.3	0.1	5.1	10.2	10	> 10	8.4	–	0.8	Average number of survival days ([14]; control group 8.08 days): 13.83 days; Apothanasia rate ([14]; survival days vs control): 71%; LD50 (Acute toxicity (LD50)): 5 mg/kg
C=C(C)[C@]12C[C@@H](C)[C@@]34OC5(CCCCCCC[C@H](C)[C@H]6[C@H](C)[C@H](OC(=O)c7ccccc7)[C@@](O)([C@H](O)[C@@]7(CO)O[C@H]7[C@H]3[C@H]1O5)[C@@H]64)O2 [Pimelea factor P2, pimelea factor P2]	–	–	–	–	–	–	–	–	–	–	strong inhibiting action	–	IC50 (HLE liver cancer cells): 10 µg/mL; Apothanasia rate ([2]; 0.1 mg/kg): 35.2%; IC50 [3]: 0.01 µg/mL; IC50 [4]: 10 µg/mL; Apothanasia rate (B-16 melanoma; 0.1 mg/kg): 41.8%; IC50 [5]: 3.8 µg/mL; IC50 [6]: 0.003 µg/mL; IC50 [7]: 1.7 µg/mL; IC50 [8]: 7 µg/mL; IC50 (K-502 leukemia cells): 0.3 µg/mL; Apothanasia rate ([9]; 0.05 mg/kg): 18.5%; IC50 [10]: 10 µg/mL; IC50 [11]: 3.2 µg/mL; IC50 [13]: 0.005 µg/mL
